What was measured:
[1] = biological target: T1, full-length human YAP1 (Homo sapiens, UniProt P46937); assay: Inhibitor-coupled bead binding of recombinant HA-tagged YAP; conditions: immunoblot of bound HA-YAP
T1 construct: purified recombinant HA-tagged full-length human YAP1; made in house
Description: FIGS. 1A-G show the identification of a YAP1-TEAD1 binding interface inhibitor. […] The Gal4 DBD was fused to residues 50-171 of human YAP1 and the Gal4 AD was fused to residues 194-411 of human TEAD1. These fusions were expressed in yeast containing reporters harboring Gal4 upstream activating sequences (UAS). […] Yeast expressing either p53-DBD and SV40 large T antigen-AD fusions or YAP1-DBD and TEAD1-AD fusions were plated on selective media. Compounds were pinned onto the plate surfaces by robotic transfer and subsequently examined for halo formation (indicated by red circles). […] Pull-down products were analyzed by SDS-PAGE and silver staining. […] Raw binding sensorgrams obtained at each concentration were fitted to a 1:1 binding model and Kon, Koff and KD were calculated by simultaneous non-linear regression analyses.
Protein and mRNA analyses, immunoprecipitation, in vitro bead-coupled inhibitor binding assays and HPLC analyses. […] Antigen-antibody complexes were detected using appropriate horseradish peroxidase-conjugated secondary antibodies (GE Healthcare) and enhanced chemiluminescence (Amersham ECL Prime). […] For quantitative RT-PCR, extraction of RNA was performed using Trizol® (Life Technologies). Total RNA was then quantified and integrity assessed using an Agilent 2100 Bioanalyzer (Agilent Technology). […]

[2] = biological target: T2, YAP-TEAD interaction (Homo sapiens, UniProt P46937); assay: Co-immunoprecipitation of myc-TEAD with HA-YAP from treated LN229 cells; format: cell-based; conditions: LN229 cells, 24 h
T2 construct: expressed in transfected cells; host or cells: LN229
Description: FIGS. 1A-G show the identification of a YAP1-TEAD1 binding interface inhibitor. […] The Gal4 DBD was fused to residues 50-171 of human YAP1 and the Gal4 AD was fused to residues 194-411 of human TEAD1. These fusions were expressed in yeast containing reporters harboring Gal4 upstream activating sequences (UAS). […] Yeast expressing either p53-DBD and SV40 large T antigen-AD fusions or YAP1-DBD and TEAD1-AD fusions were plated on selective media. Compounds were pinned onto the plate surfaces by robotic transfer and subsequently examined for halo formation (indicated by red circles). Compounds inhibiting YAP1-TEAD1 mediated growth on selective media while having no effect on p53-T antigen mediated yeast growth were considered specific. Compounds which blocked the growth of both strains were considered nonspecific and were classified as having general antifungal properties. […] His-tagged YAP (amino acids 50-171 of Accession No. NP_006097) was used in a GST pull-down assay using GST-TEAD (amino acids 194-411 of Accession No. NP_068780) immobilized on glutathione resin. Pull-down products were analyzed by SDS-PAGE and silver staining. […] Cells treated with antimycin A are shown as a negative control. […] Raw binding sensorgrams obtained at each concentration were fitted to a 1:1 binding model and Kon, Koff and KD were calculated by simultaneous non-linear regression analyses.
Protein and mRNA analyses, immunoprecipitation, in vitro bead-coupled inhibitor binding assays and HPLC analyses. […] Antigen-antibody complexes were detected using appropriate horseradish peroxidase-conjugated secondary antibodies (GE Healthcare) and enhanced chemiluminescence (Amersham ECL Prime). […] For quantitative RT-PCR, extraction of RNA was performed using Trizol® (Life Technologies). Total RNA was then quantified and integrity assessed using an Agilent 2100 Bioanalyzer (Agilent Technology). […] SYBR® Green quantitative PCR (Millipore Sigma) was performed in triplicate in 96-well optical plates on an ABI Prism 7000 Sequence Detection System (Life Technologies) according to the manufacturer's instructions. […]

T2 sequence (P46937 whole entry): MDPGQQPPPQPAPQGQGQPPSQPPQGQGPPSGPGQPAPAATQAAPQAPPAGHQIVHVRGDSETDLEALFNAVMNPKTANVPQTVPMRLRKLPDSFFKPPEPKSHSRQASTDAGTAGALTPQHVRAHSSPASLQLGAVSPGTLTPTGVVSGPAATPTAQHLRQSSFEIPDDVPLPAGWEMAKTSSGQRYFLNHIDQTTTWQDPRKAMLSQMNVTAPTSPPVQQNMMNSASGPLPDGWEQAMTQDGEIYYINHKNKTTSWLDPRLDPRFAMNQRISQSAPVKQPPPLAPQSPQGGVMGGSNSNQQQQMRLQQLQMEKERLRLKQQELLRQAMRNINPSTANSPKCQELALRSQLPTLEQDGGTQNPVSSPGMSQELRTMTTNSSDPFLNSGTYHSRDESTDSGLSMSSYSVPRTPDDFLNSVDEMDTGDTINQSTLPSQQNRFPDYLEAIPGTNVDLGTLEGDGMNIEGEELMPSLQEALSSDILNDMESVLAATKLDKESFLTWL
T1 sequence (P46937 whole entry): as above

| Binding of YAP to compound-coupled beads [1] | Compound | Cell treatment concentration required for observable blockade of the interaction [2] [µM] | Inhibition of HA-YAP/myc-TEAD interaction at equimolar concentrations ([2]; equimolar to NSC682769) |
| --- | --- | --- | --- |
| no significant binding | COc1ccc(CN2C(=O)c3ccccc3C2=O)c(OC)c1 [IRES-J007, reference compound] |  |  |
|  | verteporfin | 4 | ineffective |

Source: patent US20240108634A1, “COMPOSITIONS AND METHODS FOR INHIBITING YAP” (The United States Government as represented by the …, priority 2021, published 2024)
